Data published in patent publication US9012443B2 (Amgen Inc., priority 2011, dated 2015).
Several values for one entry are separate records, joined by “and”; a condition that tells them apart may be missing. Identical values can stand only once. Counter-ions that a name gives are not always drawn. Blank lines part the entries; values can stand above or below the molecule they belong to.

What was measured:
Nav 1.7 [1] = molecular target: T1, Nav 1.7 (Homo sapiens (Human), UniProt Q15858); experiment: Nav 1.7 IWQ in vitro assay (IonWorks Quattro population patch-clamp); type: cell-based; conditions: for IC50: 293 cells stably transfected with Nav 1.7
T1 sequence (Q15858 whole entry): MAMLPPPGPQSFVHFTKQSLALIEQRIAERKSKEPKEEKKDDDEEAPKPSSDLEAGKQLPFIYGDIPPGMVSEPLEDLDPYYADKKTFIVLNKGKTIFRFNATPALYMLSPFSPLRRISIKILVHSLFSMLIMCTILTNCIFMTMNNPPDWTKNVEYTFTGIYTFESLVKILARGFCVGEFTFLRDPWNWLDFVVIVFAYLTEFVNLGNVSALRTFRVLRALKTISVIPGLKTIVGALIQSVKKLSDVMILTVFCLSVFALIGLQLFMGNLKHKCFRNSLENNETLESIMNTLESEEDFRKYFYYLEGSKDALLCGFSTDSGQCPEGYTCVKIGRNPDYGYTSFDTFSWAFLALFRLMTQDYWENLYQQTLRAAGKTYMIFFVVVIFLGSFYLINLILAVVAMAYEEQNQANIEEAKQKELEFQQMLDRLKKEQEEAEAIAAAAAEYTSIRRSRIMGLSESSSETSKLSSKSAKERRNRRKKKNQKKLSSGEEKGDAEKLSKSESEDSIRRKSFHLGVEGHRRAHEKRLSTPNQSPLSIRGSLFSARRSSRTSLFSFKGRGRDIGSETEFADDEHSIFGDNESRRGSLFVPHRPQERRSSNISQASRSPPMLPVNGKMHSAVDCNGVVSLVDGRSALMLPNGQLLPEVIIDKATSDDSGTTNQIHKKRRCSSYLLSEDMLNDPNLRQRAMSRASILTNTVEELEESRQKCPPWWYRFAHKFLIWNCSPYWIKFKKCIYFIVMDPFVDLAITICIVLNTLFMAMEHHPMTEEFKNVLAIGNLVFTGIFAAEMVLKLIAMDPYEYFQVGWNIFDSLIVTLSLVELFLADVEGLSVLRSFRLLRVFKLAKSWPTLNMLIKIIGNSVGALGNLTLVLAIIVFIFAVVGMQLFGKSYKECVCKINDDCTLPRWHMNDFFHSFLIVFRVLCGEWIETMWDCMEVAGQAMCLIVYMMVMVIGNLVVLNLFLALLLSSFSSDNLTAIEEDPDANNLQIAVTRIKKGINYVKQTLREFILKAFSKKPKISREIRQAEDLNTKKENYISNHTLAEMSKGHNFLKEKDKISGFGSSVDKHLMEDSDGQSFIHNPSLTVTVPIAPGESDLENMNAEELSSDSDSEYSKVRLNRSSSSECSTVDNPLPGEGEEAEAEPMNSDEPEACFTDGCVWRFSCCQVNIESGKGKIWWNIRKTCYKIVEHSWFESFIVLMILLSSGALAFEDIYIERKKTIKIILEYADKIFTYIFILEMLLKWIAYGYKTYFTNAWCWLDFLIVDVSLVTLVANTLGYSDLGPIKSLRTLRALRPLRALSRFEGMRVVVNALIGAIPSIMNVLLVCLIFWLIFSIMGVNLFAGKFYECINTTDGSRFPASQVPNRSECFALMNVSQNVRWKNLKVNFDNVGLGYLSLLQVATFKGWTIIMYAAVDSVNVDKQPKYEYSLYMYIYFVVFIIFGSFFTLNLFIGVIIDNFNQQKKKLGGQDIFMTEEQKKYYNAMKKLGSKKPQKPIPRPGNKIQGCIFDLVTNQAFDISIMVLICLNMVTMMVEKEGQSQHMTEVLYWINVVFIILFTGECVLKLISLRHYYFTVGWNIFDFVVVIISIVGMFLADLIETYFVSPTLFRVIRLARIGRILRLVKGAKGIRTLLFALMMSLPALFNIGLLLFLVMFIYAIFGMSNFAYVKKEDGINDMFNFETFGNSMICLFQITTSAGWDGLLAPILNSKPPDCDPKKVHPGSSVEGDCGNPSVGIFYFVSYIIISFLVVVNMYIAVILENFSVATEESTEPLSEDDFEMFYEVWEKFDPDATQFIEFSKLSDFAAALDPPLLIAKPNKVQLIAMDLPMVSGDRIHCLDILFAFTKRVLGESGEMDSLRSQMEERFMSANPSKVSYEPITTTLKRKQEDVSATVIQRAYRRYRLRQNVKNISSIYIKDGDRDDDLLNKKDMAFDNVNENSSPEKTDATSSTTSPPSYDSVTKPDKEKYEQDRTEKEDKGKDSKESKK
Method: Nav 1.7 or Nav 1.5 IWQ In Vitro Assay
293 Cells stably transfected with either Nav 1.7 or Nav 1.5 were recorded in population patch-clamp mode with the IonWorks® Quattro automated electrophysiology system in accordance with the manufacturer's specifications (Molecular Devices, LLC, Sunnyvale, Calif.). Sodium channel currents were measured in response to a train of depolarizations that induced successively greater inactivation.
Cells were then left unclamped for a period of 3 to 8 minutes while a single concentration of test compound was added. Cells were then reclamped and put through the same voltage protocol. Current at the end of the 26th pulse to −20 mV was subtracted from the peak current evoked by the 26th pulse to −20 mV to correct for leak current. Percent block was calculated for each concentration in duplicate, and IC50 curves were fitted to percent block as a function of concentration.

Nav 1.7 [2] = molecular target: T1, Nav 1.7; experiment: Nav 1.7 in vitro PX assay (PatchXpress whole cell voltage clamp); type: cell-based; conditions: 293 cells, human Nav1.7, partially inactivated state; read-out: Nav1.7 PX IC50 IP
Method: Nav 1.7 In Vitro PX Assay
293 cells stably transfected with human Nav1.7 were recorded in whole cell voltage clamp mode with the PatchXpress automated electrophysiology system (Molecular Devices, LLC, Sunnyvale, Calif.). Compound effects were measured on a partially inactivated state of the sodium channel. Cells were clamped to a holding potential yielding 20 to 50% inactivation. To elicit sodium current, channels were activated by pulsing to −10 mV for 20 msec. […] A single concentration of test compound was applied to cells for a duration of 3 minutes. Peak sodium current was measured at the end of the compound addition period to determine percent inhibition. Three to five cells were tested per concentration, and IC50 curves were fitted to percent inhibition as a function of concentration.

[3] = second part of table, read-out: Nav1.7 IWQ IC50 IP
[4] = first part of table, read-out: Nav 1.7 IWQ IC50

- IC50 (Nav 1.7 [1]; [3]): > 10000 nM
- Nav1.7 Single Point Data IWQ (at […]) (%) (Nav 1.7 [1]): 32%
Compound: O=S(=O)(Nc1ccncn1)c1ccc2c(OCc3ccc(N4CCOCC4)cc3)nccc2c1 [Example 304, 1-((4-MORPHOLINOBENZYL)OXY)-N-(PYRIMIDIN-4-YL)ISOQUINOLINE-6-SULFONAMIDE]

- Nav1.7 Single Point Data IWQ (at […]) (%) (Nav 1.7 [1]): <20%
Compound: COc1cc(C(F)F)c(F)cc1-c1ncnc2cc(S(=O)(=O)NC3=NCCS3)ccc12 [Example 519, 4-(4-(DIFLUOROMETHYL)-5-FLUORO-2-METHOXYPHENYL)-N-(4,5-DIHYDROTHIAZOL-2-YL)QUINAZOLINE-7-SULFONAMIDE]

- Nav1.7 Single Point Data IWQ (at […]) (%) (Nav 1.7 [1]): <20%
Compound: COc1cc(-c2cnn(C)c2)ccc1-c1nccc2cc(S(=O)(=O)Nc3ccncn3)ccc12 [Example 454, 1-(2-METHOXY-4-(1-METHYL-1H-PYRAZOL-4-YL)PHENYL)-N-(PYRIMIDIN-4-YL)ISOQUINOLINE-6-SULFONAMIDE]

- IC50 (Nav 1.7 [1]; [3]): > 10000 nM
- Nav1.7 Single Point Data IWQ (at […]) (%) (Nav 1.7 [1]): 25%
Compound: Cc1cccc(CCCOc2nccc3cc(S(=O)(=O)Nc4ccncn4)ccc23)n1 [Example 300, 1-(3-(6-METHYLPYRIDIN-2-YL)PROPOXY)-N-(PYRIMIDIN-4-YL)ISOQUINOLINE-6-SULFONAMIDE]

- Nav1.7 Single Point Data IWQ (at […]) (%) (Nav 1.7 [1]): 24.7%
Compound: COc1cc(C(F)(F)F)ccc1-c1nccc2cc(S(=O)(=O)Nc3cc(C(F)(F)F)ncn3)ccc12 [Example 496, 1-(2-METHOXY-4-(TRIFLUOROMETHYL)PHENYL)-N-(6-(TRIFLUOROMETHYL)PYRIMIDIN-4-YL)ISOQUINOLINE-6-SULFONAMIDE]

- Nav1.7 Single Point Data IWQ (at […]) (%) (Nav 1.7 [1]): 41.1%
Compound: COc1cc(C(=O)CCCCO)ccc1-c1nccc2cc(S(=O)(=O)Nc3ccncn3)ccc12 [Example 463, 1-(4-(5-HYDROXYPENTANOYL)-2-METHOXYPHENYL)-N-(PYRIMIDIN-4-YL)ISOQUINOLINE-6-SULFONAMIDE]

- IC50 (Nav 1.7 [1]; [3]): > 10000 nM
- Nav1.7 Single Point Data IWQ (at […]) (%) (Nav 1.7 [1]): 39%
Compound: COc1cc(C(F)(F)F)ccc1-c1nccc2cc(S(=O)(=O)NC(C)=O)ccc12 [Example 314, N-((1-(2-METHOXY-4-(TRIFLUOROMETHYL)PHENYL)ISOQUINOLIN-6-YL)SULFONYL)ACETAMIDE]

- IC50 (Nav 1.7 [1]; [4]): 36 nM
Compound: COc1cc(Cl)ccc1-c1cccc2cc(S(=O)(=O)Nc3nccs3)ccc12 [Example 46]

- IC50 (Nav 1.7 [1]; [4]): 4890 nM
Compound: COc1cc(Cl)ccc1-c1cccc2cc(S(=O)(=O)Nc3ccn(CCN(C)C)n3)ccc12 [Example 43]

- IC50 (Nav 1.7 [1]; [4]): 4870 nM
Compound: O=S(=O)(Nc1ncco1)c1ccc2c(-c3ccc(C(F)(F)F)cc3Cl)cccc2c1 [Example 49]

- IC50 (Nav 1.7 [1]; [3]): 6810 nM
Compound: COc1c(-c2nccc3cc(S(=O)(=O)Nc4ccncn4)ccc23)cccc1C(F)(F)F [Example 152, 1-(2-METHOXY-3-(TRIFLUOROMETHYL)PHENYL)-N-(PYRIMIDIN-4-YL)ISOQUINOLINE-6-SULFONAMIDE]

- IC50 (Nav 1.7 [1]; [3]): 2340 nM and 370 nM
Compound: COc1cc(C(F)(F)F)ccc1-c1nccc2cc(S(=O)(=O)Nc3cnccn3)ccc12 [Example 186, 1-(2-METHOXY-4-(TRIFLUOROMETHYL)PHENYL)-N-(PYRAZIN-2-YL)ISOQUINOLINE-6-SULFONAMIDE]

- IC50 (Nav 1.7 [1]; [3]): > 10000 nM
- Nav1.7 Single Point Data IWQ (at […]) (%) (Nav 1.7 [1]): 39%
Compound: COc1nccc(NS(=O)(=O)c2ccc3c(-c4ccc(C(F)(F)F)cc4OC)nccc3c2)n1 [Example 313, 1-(2-METHOXY-4-(TRIFLUOROMETHYL)PHENYL)-N-(2-METHOXYPYRIMIDIN-4-YL)ISOQUINOLINE-6-SULFONAMIDE]

- Nav1.7 Single Point Data IWQ (at […]) (%) (Nav 1.7 [1]): 20.0%
Compound: O=S(=O)(Nc1ccncn1)c1ccc2c(-c3cccc4cc[nH]c34)nccc2c1 [Example 434, 1-(1H-INDOL-7-YL)-N-(PYRIMIDIN-4-YL)ISOQUINOLINE-6-SULFONAMIDE]

- IC50 (Nav 1.7 [1]; [3]): 6730 nM
Compound: COc1ncccc1-c1nccc2cc(S(=O)(=O)Nc3ccncn3)ccc12 [Example 144, 1-(2-METHOXYPYRIDIN-3-YL)-N-(PYRIMIDIN-4-YL)ISOQUINOLINE-6-SULFONAMIDE]

- IC50 (Nav 1.7 [1]; [3]): 1390 nM
Compound: COc1ncc(F)cc1-c1nccc2cc(S(=O)(=O)Nc3ccncn3)ccc12 [Example 166, 1-(5-FLUORO-2-METHOXYPYRIDIN-3-YL)-N-(PYRIMIDIN-4-YL)ISOQUINOLINE-6-SULFONAMIDE]

- IC50 (Nav 1.7 [2]): 1930 nM
Compound: COc1ccccc1-c1ccnc2cc(S(=O)(=O)Nc3ccncn3)ccc12 [Example 281, 4-(2-METHOXYPHENYL)-N-(PYRIMIDIN-4-YL)QUINOLINE-7-SULFONAMIDE]

- IC50 (Nav 1.7 [2]): 428 nM
Compound: N#CCOc1cc(Cl)ccc1-c1nccc2cc(S(=O)(=O)Nc3ncns3)ccc12 [Example 404, 1-(4-CHLORO-2-(CYANOMETHOXY)PHENYL)-N-(1,2,4-THIADIAZOL-5-YL)ISOQUINOLINE-6-SULFONAMIDE 2,2,2-TRIFLUOROACETATE]

- IC50 (Nav 1.7 [2]): 1780 nM
Compound: COc1cc(-c2ccc(C)o2)ccc1-c1nccc2cc(S(=O)(=O)Nc3ccncn3)ccc12 [Example 461]

- IC50 (Nav 1.7 [2]): 1340 nM
Compound: COc1cc(C(F)(F)F)ccc1-c1nccc2cc(S(=O)(=O)Nc3ccon3)ccc12 [Example 423]

- IC50 (Nav 1.7 [2]): 109 nM
Compound: COc1cc(-c2cccc(F)c2)c(Cl)cc1-c1nccc2cc(S(=O)(=O)Nc3cnsn3)ccc12 [Example 334, 1-(2-CHLORO-3′-FLUORO-5-METHOXY-[1,1′-BIPHENYL]-4-YL)-N-(1,2,5-THIADIAZOL-3-YL)ISOQUINOLINE-6-SULFONAMIDE]

- IC50 (Nav 1.7 [2]): 4570 nM
Compound: COc1cc(C(F)(F)F)ccc1-c1nccc2cc(S(=O)(=O)Nc3nc(C(F)(F)F)cs3)ccc12 [Example 428, 1-(2-METHOXY-4-(TRIFLUOROMETHYL)PHENYL)-N-(4-(TRIFLUOROMETHYL)THIAZOL-2-YL)ISOQUINOLINE-6-SULFONAMIDE]

- IC50 (Nav 1.7 [2]): 16600 nM
Compound: COc1cc(-c2cc(F)cc(F)c2)ccc1-c1nccc2cc(S(=O)(=O)Nc3nnco3)ccc12 [Example 372, 1-(3′,5′-DIFLUORO-3-METHOXY-[1,1′-BIPHENYL]-4-YL)-N-(1,3,4-OXADIAZOL-2-YL)ISOQUINOLINE-6-SULFONAMIDE]

- IC50 (Nav 1.7 [2]): 2940 nM
Compound: N#CCOc1cc(Cl)ccc1-c1nccc2cc(S(=O)(=O)Nc3ccncn3)ccc12 [Example 376, 1-(4-CHLORO-2-(CYANOMETHOXY)PHENYL)-N-(PYRIMIDIN-4-YL)ISOQUINOLINE-6-SULFONAMIDE 2,2,2-TRIFLUOROACETATE]

- IC50 (Nav 1.7 [2]): 830 nM
Compound: COc1nc(-c2ccc(F)c(F)c2)ccc1-c1nccc2cc(S(=O)(=O)Nc3ccncn3)ccc12 [Example 499, 1-(6-(3,4-DIFLUOROPHENYL)-2-METHOXYPYRIDIN-3-YL)-N-(PYRIMIDIN-4-YL)ISOQUINOLINE-6-SULFONAMIDE]

- IC50 (Nav 1.7 [2]): 1850 nM
Compound: Cc1ccccc1-c1nccc2cc(S(=O)(=O)Nc3nccs3)ccc12 [Example 178, N-(THIAZOL-2-YL)-1-(O-TOLYL)ISOQUINOLINE-6-SULFONAMIDE]

- IC50 (Nav 1.7 [2]): 1660 nM
Compound: COc1cc(C(F)(F)F)ccc1-c1nccc2cc(S(=O)(=O)Nc3nc(C)cs3)ccc12 [Example 424, 1-(2-METHOXY-4-(TRIFLUOROMETHYL)PHENYL)-N-(4-METHYLTHIAZOL-2-YL)ISOQUINOLINE-6-SULFONAMIDE]

- IC50 (Nav 1.7 [2]): 828 nM
Compound: COc1cc(C(F)F)c(Cl)cc1-c1nccc2cc(S(=O)(=O)Nc3ccncn3)ccc12 [Example 457, 1-(5-CHLORO-4-(DIFLUOROMETHYL)-2-METHOXYPHENYL)-N-(PYRIMIDIN-4-YL)ISOQUINOLINE-6-SULFONAMIDE]

- IC50 (Nav 1.7 [2]): 2790 nM
Compound: COc1cc(C(F)(F)F)ccc1-c1nccc2cc(S(=O)(=O)Nc3ncco3)ccc12 [Example 389, 1-(2-METHOXY-4-(TRIFLUOROMETHYL)PHENYL)-N-(OXAZOL-2-YL)ISOQUINOLINE-6-SULFONAMIDE]

- IC50 (Nav 1.7 [2]): 1360 nM
Compound: COc1cc(-c2cccnc2F)ccc1-c1nccc2cc(S(=O)(=O)Nc3ccncn3)ccc12 [Example 473, 1-(4-(2-FLUOROPYRIDIN-3-YL)-2-METHOXYPHENYL)-N-(PYRIMIDIN-4-YL)ISOQUINOLINE-6-SULFONAMIDE]

- IC50 (Nav 1.7 [2]): 1400 nM
Compound: COc1ccc(-c2ccc(-c3nccc4cc(S(=O)(=O)Nc5ccncn5)ccc34)c(OC)c2)cn1 [Example 483, 1-(2-METHOXY-4-(6-METHOXYPYRIDIN-3-YL)PHENYL)-N-(PYRIMIDIN-4-YL)ISOQUINOLINE-6-SULFONAMIDE]

- IC50 (Nav 1.7 [2]): 980 nM
Compound: COc1ccccc1-c1ncc(O)c2cc(S(=O)(=O)Nc3nccs3)ccc12 [Example 234, 4-HYDROXY-1-(2-METHOXYPHENYL)-N-(THIAZOL-2-YL)ISOQUINOLINE-6-SULFONAMIDE 2,2,2-TRIFLUOROACETATE]

Compound: Cn1cc(-c2cc(F)ccc2-c2nccc3cc(S(=O)(=O)Nc4nccs4)ccc23)cn1 [Example 129, 1-(4-FLUORO-2-(1-METHYL-1H-PYRAZOL-4-YL)PHENYL)-N-(THIAZOL-2-YL)ISOQUINOLINE-6-SULFONAMIDE TRIFLUOROACETATE]
- IC50 (Nav 1.7 [2]): 8000 nM

- IC50 (Nav 1.7 [2]): 2500 nM
Compound: COc1cc(C(F)(F)F)ccc1-c1ccnc2cc(S(=O)(=O)Nc3nccs3)ncc12 [Example 294, 4-(2-METHOXY-4-(TRIFLUOROMETHYL)PHENYL)-N-(THIAZOL-2-YL)-1,6-NAPHTHYRIDINE-7-SULFONAMIDE]

- IC50 (Nav 1.7 [2]): 23 nM
Compound: COc1cc(-c2cccc(F)c2)c(Cl)cc1-c1nccc2cc(S(=O)(=O)Nc3ncns3)ccc12 [Example 331, 1-(2-CHLORO-3′-FLUORO-5-METHOXY-[1,1′-BIPHENYL]-4-YL)-N-(1,2,4-THIADIAZOL-5-YL)ISOQUINOLINE-6-SULFONAMIDE]
